From patent publication US7915402B2, “Antioxidant inflammation modulators: oleanolic acid derivatives with saturation in the C-ring” (Reata Pharmaceuticals, Inc., priority 2008, dated 2011)

Assay: Plasma pharmacokinetics after oral dosing in rats
Type: in vivo, Sprague Dawley rats
Details: SD rats, oral gavage
Protocol: Compound 404-02 reaches high concentrations in the lung and CNS of rats following oral dosing: To assess basic pharmacokinetic parameters following oral dosing, 9 male and 9 female Sprague Dawley (SD) rats were administered 404-02 at 1, 10 or 50 mg/kg doses via oral gavage. Doses were prepared in sesame oil and individualized to body weight on the day of dosing. Blood was drawn at 0, 1, 2, 4, 8 and 24 hours post-dose on days 1 and 15. Blood was collected from the orbital sinus after carbon dioxide/oxygen inhalation for determination of 404-02 plasma concentrations. Plasma was transferred to cryovials and stored at −80° C. until processing and LC-MS/MS analysis. A standard curve was derived for 404-02 in rat plasma, and quantification of experimental results was based on this standard curve.
Pharmacokinetic parameters were obtained using non-compartmental analysis, WinNonlin™ version 5.2.

[1] = 1 mg/kg/day, day 1, n=9/sex/dose level
[2] = 1 mg/kg/day, day 15, n=9/sex/dose level
[3] = 10 mg/kg/day, day 1, n=9/sex/dose level
[4] = 10 mg/kg/day, day 15, n=9/sex/dose level
[5] = 50 mg/kg/day, day 1, n=9/sex/dose level
[6] = 50 mg/kg/day, day 15, n=9/sex/dose level

SMILES: CC1(C)CC[C@]2(C(=O)NCC(F)(F)F)CC[C@]3(C)[C@H](C(=O)C[C@@H]4[C@@]5(C)C=C(C#N)C(=O)C(C)(C)[C@@H]5CC[C@]43C)[C@@H]2C1 [Compound 63102, (4aS,6aR,6bR,8aR,12aR,12bR,14aR,14bS)-11-cyano-2,2,6a,6b,9,9,12a-heptamethyl-10,14-dioxo-N-(2,2,2-trifluoroethyl)-1,2,3,4,4a,5,6,6a,6b,7,8,8a,9,10,12a,12b,13,14,14a,14b-icosahydropicene-4a-carboxamide]
- Mean Maximum 404-02 Plasma Concentration (nM) ± SEM [1]: 5.7 ± 1.1 nM
- Mean Maximum 404-02 Plasma Concentration (ng/mL) ± SEM [1]: 3.3 ± 0.65 ng/mL
- Mean Maximum 404-02 Plasma Concentration (nM) ± SEM [2]: 11.0 ± 1.6 nM
- Mean Maximum 404-02 Plasma Concentration (ng/mL) ± SEM [2]: 6.3 ± 0.9 ng/mL
- Mean Maximum 404-02 Plasma Concentration (nM) ± SEM [3]: 116 ± 28.7 nM
- Mean Maximum 404-02 Plasma Concentration (ng/mL) ± SEM [3]: 66 ± 16.5 ng/mL
- Mean Maximum 404-02 Plasma Concentration (nM) ± SEM [4]: 210 ± 42.3 nM
- Mean Maximum 404-02 Plasma Concentration (ng/mL) ± SEM [4]: 144 ± 24.3 ng/mL
- Mean Maximum 404-02 Plasma Concentration (nM) ± SEM [5]: 1241 ± 171 nM
- Mean Maximum 404-02 Plasma Concentration (ng/mL) ± SEM [5]: 713 ± 98.2 ng/mL
- Mean Maximum 404-02 Plasma Concentration (nM) ± SEM [6]: 1966 ± 199 nM
- Mean Maximum 404-02 Plasma Concentration (ng/mL) ± SEM [6]: 1129 ± 114 ng/mL
